Values after ≈ are worked out from the molar mass of the structure shown. Where two headings read alike, the source gives them in different places.
Key:
hTRPV3 [1] = molecular target: T1, hTRPV3 (Homo sapiens (Human), UniProt Q8NET8); assay: Whole-cell patch clamp, hTRPV3 Phase 1 / Phase 2 currents; assay type: cell-based
Summary of the method: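 Whole-cell recordings on induced TRPV3 cells replated on coverslips, held at −40 mV with 400 ms ramps from −120 to +100 mV every 5 s; currents read at −80 and +80 mV. Ringer's external solution; current activated by heating to ≥28 °C or 20 μM 2-APB.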

hTRPV3 [2] = molecular target: T1, hTRPV3; assay: hTRPV3 HAMA IC50 assay (Hamamatsu FDSS6000 calcium flux, TRex-293 cells)
Method: IC50s were calculated using CBIS from ChemInnovation (San Diego).

[3] = Metabolic Stability assay, rat liver microsomes; assay type: in vitro ADME; conditions: read-out: LM T1/2 (min) (rat)
Method: Metabolic Stability assay: The metabolic stability was determined by adding compound dissolved in DMSO to human or rat, liver microsomes. Briefly, assays were run with a starting concentration of 1 μM test article. The reaction was started by addition of NADPH regeneration components at 37° C. at which time an aliquot was immediately quenched in ice-cold acetonitrile/MeOH/H2O solution. Reaction mixture was incubated at 37° C. on a shaker, and additional aliquots were taken at 7, 15, 30 and 60 minutes. Following quench and centrifugation, samples were analyzed on HPLC/MS/MS.

[4] = Aqueous solubility assay in Normal Ringer Solution; conditions: Normal Ringer Solution; for solubility at 40 min: saline or isotonic, kinetic from dmso stock; for Solubility Ringer (nM): room temperature
Method: Following vortex and incubation for a sufficient time (e.g. 40 minutes at room temperature), solutions were filtered, quenched with acetonitrile, and analyzed by Liquid Chromotography. Solubility Limits were determined by comparison to a standard curve.

[5] = Phase 1 current, inward, whole-cell patch clamp, read-out: hTRPV3 Patch P1 Inwd
[6] = Phase 1 current, read-out: hTRPV3 (nM) (Phase 1)
[7] = Phase 2 current, inward, whole-cell patch clamp, read-out: hTRPV3 Patch P2 Inwd
[8] = Phase 2 current, read-out: hTRPV3 (nM) (Phase 2)

T1 sequence (Q8NET8 whole entry): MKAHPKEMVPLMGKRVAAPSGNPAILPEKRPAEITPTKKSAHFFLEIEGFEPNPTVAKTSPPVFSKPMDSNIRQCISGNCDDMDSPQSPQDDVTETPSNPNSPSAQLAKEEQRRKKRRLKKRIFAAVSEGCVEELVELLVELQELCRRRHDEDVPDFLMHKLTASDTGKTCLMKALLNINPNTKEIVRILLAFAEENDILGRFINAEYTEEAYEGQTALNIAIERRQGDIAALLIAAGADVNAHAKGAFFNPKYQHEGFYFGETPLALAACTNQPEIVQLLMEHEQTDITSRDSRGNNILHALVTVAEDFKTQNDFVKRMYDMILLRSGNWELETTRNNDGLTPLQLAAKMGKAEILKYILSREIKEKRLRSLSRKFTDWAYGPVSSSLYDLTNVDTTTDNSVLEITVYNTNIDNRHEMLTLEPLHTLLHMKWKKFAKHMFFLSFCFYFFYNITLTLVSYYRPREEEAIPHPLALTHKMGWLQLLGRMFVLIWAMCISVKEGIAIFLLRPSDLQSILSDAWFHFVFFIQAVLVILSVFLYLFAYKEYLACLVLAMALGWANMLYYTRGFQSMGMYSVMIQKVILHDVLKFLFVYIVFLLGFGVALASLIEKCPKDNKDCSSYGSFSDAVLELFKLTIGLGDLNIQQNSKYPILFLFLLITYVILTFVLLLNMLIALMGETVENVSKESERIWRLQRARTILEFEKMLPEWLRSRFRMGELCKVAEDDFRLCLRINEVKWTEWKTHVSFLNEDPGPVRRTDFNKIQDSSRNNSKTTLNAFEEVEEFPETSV

Structure (SMILES) | IC50 (hTRPV3 [1]; [5]) | IC50 (hTRPV3 [1]; [6]) | half-life at 1 μM [3] | solubility at 40 min [4] | other results
Cc1ccccc1Oc1ccc(N2CC[C@H](Oc3ccc(C(F)(F)F)cn3)C2)c(CO)n1 [Compound 1-226, (S)-(6-(o-tolyloxy)-3-(3-(5-(trifluoromethyl)pyridin-2-yloxy)pyrrolidin-1-yl)pyridin-2-yl)methanol] | 100 to 1000 nM | ~158 nM | – | – | hTRPV3 HAMA IC50 (nM) (5 min) (hTRPV3 [2]; 5 min): no fit (5 min) no fit (30 min); hTRPV3 HAMA IC50 (nM) (30 min) (hTRPV3 [2]; 30 min): no fit (5 min) no fit (30 min)
NC(=O)c1cc(C(=O)c2ccccc2)ccc1N1CC[C@H](Oc2ncccc2Cl)C1 [Compound 1-136, (S)-5-benzoyl-2-(3-(3-chloropyridin-2-yloxy)pyrrolidin-1-yl)benzamide] | – | – | 19.7 min | > 15 µM | IC50 (hTRPV3 [1]; hTRPV3 Patch P1 Inwd (nM)): > 1000 nM; IC50 (hTRPV3 [1]; hTRPV3 Patch P2 Inwd (nM)): > 1000 nM; IC50 (hTRPV3 [1]; read-out: hTRPV3 (nM) (Phase 1)): 1620 nM; IC50 (hTRPV3 [1]; read-out: hTRPV3 (nM) (Phase 2)): 1670 nM
OCCc1cc(-c2ccccc2)ccc1N1CC[C@H](Oc2ccc(C(F)(F)F)cn2)C1 [Compound 1-142, (S)-2-(4-(3-(5-(trifluoromethyl)pyridin-2-yloxy)pyrrolidin-1-yl)biphenyl-3-yl)ethanol] | 100 to 1000 nM | 275 nM | 65.2 min | – | Solubility Ringer (nM) [4]: BLQ
CC(C)c1ccccc1Oc1ccc(N2CC[C@H](Oc3ccccn3)C2)c(CCO)c1 [Compound 1-317] | 10 to 100 nM | 20.8 nM | 12.1 min | – | Solubility Ringer (nM) [4]: BLQ
COc1ccccc1-c1ccc(N2CC[C@H](Oc3ccc(C(F)(F)F)cn3)C2)c(CO)c1 [Compound 1-151, (S)-(2′-methoxy-4-(3-(5-(trifluoromethyl)pyridin-2-yloxy)pyrrolidin-1-yl)biphenyl-3-yl)methanol] | 100 to 1000 nM | 125 nM | 38.9 min | – | Solubility Ringer (nM) [4]: BLQ
COc1ccccc1Oc1ccc(N2CC[C@H](Oc3ccc(C)cn3)C2)c(CO)n1 [Compound 1-205, (S)-(6-(2-methoxyphenoxy)-3-(3-(5-methylpyridin-2-yloxy)pyrrolidin-1-yl)pyridin-2-yl)methanol] | > 1000 nM | ~3000 nM | 16 min | > 7.2 µM | IC50 (hTRPV3 [1]; [7]): > 1000 nM; IC50 (hTRPV3 [1]; [8]): ~6000 nM
Cc1cccc(C(=O)c2ccc(N3CC[C@H](Oc4ncccc4Cl)C3)c(CO)c2)c1 [Compound 1-282, (S)-(4-(3-(3-chloropyridin-2-yloxy)pyrrolidin-1-yl)-3-(hydroxymethyl)phenyl)(m-tolyl)methanone] | 10 to 100 nM | 62.3 nM | 16.1 min | ~0.67 µM (≈ 0.283 µg/mL) | –
COC(c1ccc(F)cc1)c1ccc(N2CC[C@H](Oc3ncccc3Cl)C2)c(CO)c1 (stereo partly drawn) [Compound 1-289, (2-((S)-3-(3-chloropyridin-2-yloxy)pyrrolidin-1-yl)-5-((4-fluorophenyl)(methoxy)methyl)phenyl)methanol] | 10 to 100 nM | 66.2 nM | 9.22 min | ~1.75 µM (≈ 0.775 µg/mL) | –
CCc1c(Cl)ncnc1Oc1ccc(N2CC[C@H](Oc3ncccc3Cl)C2)c(CO)c1 [Compound 1-358, (S)-(5-(6-chloro-5-ethylpyrimidin-4-yloxy)-2-(3-(3-chloropyridin-2-yloxy)pyrrolidin-1-yl)phenyl)methanol] | 100 to 1000 nM | 174 nM | 16.7 min | ~2.1 µM (≈ 0.969 µg/mL) | –
CCc1ccccc1Oc1ccc(N2CC[C@H](Oc3ccccn3)C2)c(CO)c1 [Compound 1-275] | 10 to 100 nM | 24.8 nM | 22.8 min | ~1 µM (≈ 0.39 µg/mL) | –
OCCc1cc(C(O)c2ccccc2Cl)ccc1N1CC[C@H](Nc2ccc(F)cn2)C1 (stereo partly drawn) [Compound 1-390, 2-(5-((2-chlorophenyl)(hydroxy)methyl)-2-((S)-3-(5-fluoropyridin-2-ylamino)pyrrolidin-1-yl)phenyl)ethanol] | 100 to 1000 nM | 219 nM | 7.23 min | > 13.6 µM | –
O=C(CO)c1cc(-c2ccccc2)ccc1N1CC[C@H](Oc2ccc(C(F)(F)F)cn2)C1 [Compound 1-178, (S)-2-hydroxy-1-(4-(3-(5-(trifluoromethyl)pyridin-2-yloxy)pyrrolidin-1-yl)biphenyl-3-yl)ethanone] | – | – | 66.5 min | ~0.2 µM (≈ 0.0885 µg/mL) | IC50 (hTRPV3 [1]; [7]): 100 to 1000 nM; IC50 (hTRPV3 [1]; [8]): 146 nM

Reference: patent publication US12435061B2 (priority 2020, dated 2025)
